{
  "source": "patent US20250163522A1",
  "about": "“METHODS FOR PRESERVING HEALTHY INTESTINAL MICROBIOME DURING GROWTH PROMOTER ADMINSTRATION” (BIOMEDIT, LLC, priority 2022, published 2025)",
  "type_in_all_cases": "in vivo, chickens (Gallus gallus)",
  "key": {"cecal microbiome": {"system": "cecal microbiome", "test": "Shotgun metagenomics (functional/taxonomic profiles, GSEA) of cecal microbiome, day 35 broilers", "details": "day 35 cecal samples", "procedure": "74 frozen cecal samples from day 35 birds were sent to CosmosID (Rockville, MD) for shotgun metagenomics sequencing. DNA was extracted using the ZymoBIOMICS DNA Miniprep Kit (ZymoBIOMICS, Irvine, CA) according to the manufacturers protocol. The isolated DNA was quantified by Qbit (ThermoFisher, Coon Rapids, MN). DNA libraries were prepared using the Illumina Nextera XT library preparation kit (Illumina, San Diego, CA), with a modified protocol. Libraries were then sequenced on an Illumina HiSeq platform 2×150 bp.\nReads were trimmed and Illumina adapters removed using Trimmomatic (v 0.39) (Bolger et al., Bioinformatics 30, 2114-2120 (2014)) with options SLIDINGWINDOW:5:20 LEADING:3 TRAILING:3. Host reads (Gallus gallus, GenBank assembly GCA_000002315) and spike-in reads from Vibrio harveyii (ATCC 14126) were removed using Bowtie2 (v. 2.3.5.1) (Langmead et al., Nat Methods 9, 357-359 (2012)).\nTaxonomic profiling of individual reads was carried out using Kaiju (v. 1.7.3) (Menzel et al., Nat Commun 7, 11257 (2016)) with the nr_euk database. Kaiju outputs were summarized for each read as the number of bases aligned to proteins in the reference database. In cases of individual reads mapping to more than one taxonomic group, the number of bases assigned to each taxon was calculated as the alignment length (in base pairs) multiplied by the fraction of bases assigned unambiguously to said taxon out of all the taxa to which the read mapped. The numbers of assigned bases per read were used to estimate species-level relative abundances using metametamerge (v. 1.1) (Piro, V. C., et al., Microbiome 5, 101 (2017).) taking into account the average coding length per species in the nr_euk database.\nFunctional profiling was done by first assembling the reads from each sample into contigs using Spades (v. 3.13.1, option --meta) (Nurk, S. et al., Genome Res 27, 824-834 (2017)), with default parameters, followed by protein prediction with Prokka (v. 1.14.5) (Seemann, T. Prokka: Bioinformatics 30, 2068-2069 (2014).). Predicted protein sequences were aligned to a reference database and using Diamond (v. 0.9.30) (Buchfink, B. et al. Nat Methods 18, 366-368 (2021)) and annotated based on the function assigned to the top hit in the database. To avoid misannotations, (Plata, G. et al. Nat Chem Biol 8, 848-854 (2012)) the inventors only considered hits with at least 70% identity and 70% query coverage. The reference database was built starting from 46,181 complete bacterial genomes downloaded from the PATRIC (Davis, J. J. et al. Nucleic Acids Res 48, D606-D612 (2020)) database representing at most 10 genomes per species from ˜400 taxonomic families including those most frequently observed in broiler microbiomes. To speed up functional annotations, protein sequences within each family in the database were clustered at 90% sequence identity using CD-HIT (v. 4.8.1) (Huang, Y. et al. Bioinformatics 26, 680-682 (2010)) and the longest sequence from each cluster was kept for the diamond search.\nTo quantify the abundance of each function per sample, reads were mapped to the corresponding contigs using BWA (v. 0.7.17) (Li, H. & Durbin, R. Bioinformatics 25, 1754-1760 (2009)), and reads mapping to each predicted protein were counted with HTseq (v. 0.11.3) (Anders, S. et al. Bioinformatics 31, 166-169 (2015)). Read counts per RAST functional role were TPM normalized based on the Prokka protein lengths (Zhao, S. et. al. RNA 26, 903-909 (2020)) and expressed in units of mean copy numbers per genome by calculating a normalization factor such that the median abundance of a set of universal-single copy bacterial genes (Creevey, C. J. et al. PLOS One 6, e22099 (2011)) was set to 1 (Manor, O. & Borenstein, E. Genome Biology 16, 53 (2015)). A similar procedure was used to produce a copy-number normalized matrix of functional roles across samples stratified by the bacterial genera of the protein hits used to transfer functional annotations. […]"}, "Ross 708 male broilers": {"system": "Ross 708 male broilers", "test": "Clinical study of in-feed AGPs in broilers: weight gain and feed conversion", "details": "in-feed: 50 g/ton BMD, 20 g/ton avilamycin, 16.5 g/ton virginiamycin, 70 g/ton narasin; 35 days", "from_the_text": "500 healthy Ross 708 male broilers sourced from a commercial hatchery were used in the experiment. […] Birds were individually tagged with a unique identifier and were randomly assigned to one of 25 floor pens (20 animals per pen). Groups of 5 pens were assigned to each of 5 different treatments. The 5 treatments included: 1) control birds fed least-cost diets as follows: A starter diet was fed from days 0 to 14 of the study, followed by a grower diet (14-28d) and a finisher diet (28-35d). 2) Birds fed the above diets supplemented with 50 g/ton BMD. 3) Supplemented with 20 g/ton avilamycin. 4) Supplemented with 16.5 g/ton Virginiamycin. And 5) supplemented with 70 g/ton narasin. Birds were raised for 35 days in a barn on top of used litter.\nIndividual body weights were collected on days 0, 7, 21 and 35. Pen weights were collected on days 14 and 28. Feed weigh backs for each pen were done on days 7, 14, 21, 28 and 35 of the study. Average bird weights and feed intake per pen were used to calculate weekly values of average daily gain and feed conversion ratios. Weekly values were compared between treatments using the Mann Whitney U test. On days 7, 21 and 35 three birds per pen were randomly selected and euthanized for the collection of cecal contents and blood. Blood was collected via wing vein venipuncture, except for birds that were too small, in which cases direct heart puncture was used. In both cases, blood was collected into vacutainer tubes and centrifuged to obtain serum. Cecal samples were collected by aseptically squeezing the cecum content into a sterile tube. Cecal samples were placed on dry ice immediately after collection. All samples were stored at −80° C. until processing."}, "[1]": {"system": "AMR genes in the cecum microbiome", "test": "AMR gene abundance analysis (AMR++ pipeline) of cecal microbiome", "details": "day 35 cecum", "procedure": "AMR gene abundances per sample were determined using the AMR++ pipeline (Lakin, S. M. et al., Nucleic Acids Res 45, D574-D580 (2017)) (v. 2.0.2) starting from the raw metagenomics sequences and using the MegaRes (v. 2.0.0) database. Only genes involved in drug resistance were considered. The AMR gene counts per sample obtained from AMR++ were expressed in unites of reads per kilobase per million reads (RPKM) based on the corresponding gene lengths from the MegaRes database. RPKM values across treatments were compared using the Mann-Whitney U test."}},
  "note": "Entries after “also recorded” stand apart in the source; their conditions may differ.",
  "data": [
    {"smiles": "CC[C@@H](C(=O)O)[C@@H]1O[C@@H]([C@@H](C)[C@H](O)[C@H](C)C(=O)[C@H](CC)[C@H]2O[C@]3(C=C[C@@H](O)[C@]4(CC[C@@](C)([C@H]5CC[C@](O)(CC)[C@H](C)O5)O4)O3)[C@H](C)C[C@@H]2C)[C@@H](C)C[C@@H]1C", "note": "[narasin]", "values": [
      {"measurement": "functional processes depleted in cecal microbiome relative to controls (GSEA)", "setting": "cecal microbiome", "value": "utilization of mucin polysaccharides as well as cell matrix components including sialic acid, N-acetylneuraminate and hyaluronic acid"},
      {"measurement": "functional processes enriched in cecal microbiome relative to controls (GSEA)", "setting": "cecal microbiome", "value": "propanediol utilization, molybdenum-containing cofactor synthesis and CO2 fixation via the Wood-Ljungdahl pathway; also recorded: Tryptophan synthesis, urea degradation, heme and tetrapyrrole biosynthesis, and xylose utilization"},
      {"measurement": "impact on bird performance", "setting": "Ross 708 male broilers", "value": "highest impact on performance"},
      {"measurement": "effect on AMR gene abundance profiles", "setting": "[1]", "value": "significantly different AMR gene abundance profiles"},
      {"measurement": "AMR gene classes changed compared to controls", "setting": "[1]; Mann-Whitney U p-value<0.05", "value": "enriched for resistance to tetracyclines"},
      {"measurement": "total AMR gene abundance compared to control", "setting": "[1]; RPKM", "value": "significant increase"}
    ]}
  ]
}
